Measurements published in PubChem BioAssay (NCI).
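Assay format: 96-well plates, 48-hour exposure. GI50: concentration for 50% inhibition of growth. TGI: concentration producing complete growth inhibition.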

Experiments:
Assay in all cases: NCI tumour cell line growth inhibition, 48 h
CAKI-1 renal = tested on: CAKI-1 renal
IGROV1 ovarian = tested on: IGROV1 ovarian
NCI-H460 lung = tested on: NCI-H460 lung
OVCAR-3 ovarian = tested on: OVCAR-3 ovarian
SF-539 CNS = tested on: SF-539 CNS
SN12C renal = tested on: SN12C renal
TK-10 renal = tested on: TK-10 renal
UO-31 renal = tested on: UO-31 renal

SMILES	GI50 (CAKI-1 renal) [nM]	TGI (CAKI-1 renal) [µM]	GI50 (IGROV1 ovarian) [nM]	TGI (IGROV1 ovarian) [µM]	GI50 (NCI-H460 lung) [nM]	TGI (NCI-H460 lung) [µM]	GI50 (OVCAR-3 ovarian) [nM]	TGI (OVCAR-3 ovarian) [µM]	GI50 (SF-539 CNS) [nM]	TGI (SF-539 CNS) [µM]	GI50 (SN12C renal) [nM]	TGI (SN12C renal) [µM]	GI50 (TK-10 renal) [nM]	TGI (TK-10 renal) [µM]	GI50 (UO-31 renal) [nM]	TGI (UO-31 renal) [µM]
COc1ccc(NC(=O)O[C@H]2[C@H](O[C@H]3[C@@H](O)COC(O[C@H]4C[C@H]5[C@@H]6CC=C7C[C@@H](O)CC[C@]7(C)[C@H]6CC[C@]5(C)[C@H]4[C@H](C)C(=O)CCC(C)C)[C@@H]3OC(C)=O)OC[C@@H](O)[C@@H]2O)cc1 (some centres not stated)	< 10	1.01	33.1	> 100	< 10	1.76	1110	31.5	< 10	0.0124	11400	> 100	96.6	23.8	24	0.0978
COc1ccc(-n2sc(=O)n(Cc3ccc(COC(=O)C(C)c4ccc(CC(C)C)cc4)cc3)c2=O)cc1 (configuration not stated)	1360	5.37	1400	4.74	5410	12.5	821	1.52	5120	10.9	2830	9.49	997	2.17	819	1.6
N#Cc1c(Oc2ccc(F)c(NC(=O)Cc3cccc(C(F)(F)F)c3)c2)ccc2nc(NC(=O)C3CC3)sc12	744	> 100	940	> 44.7	378	> 100	2300	> 100	436	> 27.2	1260	> 100	1860	> 100	553	> 24.2
COc1ccc(-c2cncn2-c2cc(OC)c(OC)c(OC)c2)cc1F	< 19.7	> 24.4	< 21.2	19	< 10	> 100	21.9	22.2	< 23.2		789	> 100	18400	> 100	71.7	64.8
C/C(=N\Nc1cccc(Cl)n1)c1ccccn1	437	7.31	533	> 59.1	482	8.33	379	13.3	578	4.53	598	> 100	700	> 100	466	4.33
O=C(CC1(O)C(=O)Nc2c(Cl)ccc(Cl)c21)c1ccc(C2CC2)cc1 (configuration not stated)	449	17.3	1500	18.2	622	9	3460	16.6	751	5.79	2660	20.4	11900	29.1	1580	19.6
O=C1c2cccc3cc([N+](=O)[O-])cc(c23)C(=O)N1O		> 100		> 100		> 100		> 100				> 100		83.6		> 100
CCN(CC)c1ccc2nc3c4ccccc4c(=NC(=O)c4ccccc4-c4c5ccc(N(CC)CC)cc5[o+]c5cc(N(CC)CC)ccc45)cc-3oc2c1	4950	18.9	2410	7.49	2290	10.1	850	6.26	3240	8.73	2130	6.14	10300	31.5	1490	15
CCOc1cc(/C=N\NC(=O)N/N=C/c2ccc(O)c(OCC)c2)ccc1O	3060	> 100	4710	> 100	2880	> 67.7	308	1.08	1420	> 100	7000	> 100	> 29100	> 100	8470	> 100
O=C(NO)c1cnc(N2CCN(S(=O)(=O)c3ccc4ccccc4c3)CC2)nc1	114	0.328	162	0.78	53.5	11.9	95.5	0.386	76.2	2.8	198	13.2	43.2	0.454	59.7	0.854
CCc1ccccc1-n1c(N)c(C#N)c(-c2ccc(OC)c(OC)c2)c(C#N)c1=O	> 100000	> 100	19500	60	19300	38.5	17300	33.1	15000	28.3	19000	45.1	18000	39.4	25500	> 100
CC1(C)CC2CC(C)(CN2c2ncnc3ccc(Br)cc23)C1 (configuration not stated)	10200	22	10900	22.8	11100	35.2	2720	13.1			10300	21.9	11400	23.6	14000	56.1
Brc1ccc(Br)nn1	1960	5.07	2000	4.92	3040	> 33.8			3250	12.2	1620	3.53	2560	6.37	2620	14.9
CC(=O)/C=C/C1=C(c2ccsc2)c2ccccc2CC1	27700	83.4			34400	> 100	19400	39.7	25100	60.7	20900	47.2	33600	> 100	19400	43.6
COc1cnc2c(c1)C(=O)c1c-2n(CCCN2CCN(CCO)CC2)c(=O)c2cc([N+](=O)[O-])ccc12	1340	15.8			267	1.45	1460	3.12	1700	3.68			2770	11.9	3320	20.8
COc1cc2c3c(c1O)C1(C=CC(=O)C=C1)CC3N(C)CC2 (configuration not stated)		35.5		25.4		18.3		22.9		28.8		30.2		41.7		
